According to patent publication US20090203785A1, “METHOD AND PROCESS FOR PRODUCING YOUTHFUL-APPEARING, SMALL-PORED, AND SMOOTH SKIN” (priority 2002, published 2009):

Tested on: acne vulgaris
Test: topical retinoic acid plus laser-induced explosion of carbon particles on the skin of a patient with acne vulgaris (FIG. 4)
Type: in vivo
Conditions: combination with exploding carbon particles (Q-switched laser); after first six months of treatment; one patient
Text: In the first step 40, pre-treatment is initiated with topical retinoic acid applied to the skin at least twice per week. The concentration of retinoic acid in the topical formulation is between about 0.05% to 1% preferably about 0.1%. […] In the next step 41, a solution of carbon particles in baby oil is applied to the skin. The carbon particle-oil ratio may range from about 1:1 to 1:9, preferably 1:4, i.e., about 25 percent carbon particles suspended in about 75 percent oil by weight. In the next steps 42 and 43 a laser beam is scanned over the skin treated with the carbon particle solution so as to clean substantially all of the carbon particles from the skin surface by exploding or fracturing the carbon particles. This scanning process takes from about 2 to 10 minutes to complete on the face, usually about 4 minutes, exposing the carbon particles only to 1 or 2 pulses of laser light.
The wave length of the radiation may range from about 800 nM to 1200 nM, preferably about 1064 nM. The frequency of the pulses from the laser range from about 1 to 20 per second, preferably, about 10 per second. The duration of each pulse ranges from about 0.001 to 1 microseconds, preferably about 0.1 microseconds. The fluence or exposure of the skin treated with the carbon particles ranges from about 1 to 3 J/cm^2. […]

CC1=C(/C=C/C(C)=C/C=C/C(C)=C/C(=O)O)C(C)(C)CCC1 [retinoic acid]
state of the epidermis / stratum corneum after treatment: leaving the epidermis intact and normal, with no removal of stratum corneum
